We go through 12 compounds from patent EP4745137A1 (Gluetacs Therapeutics (Shanghai) Co., Ltd., priority 2023, dated 2025).

Common to all, as to type: cell-based
Holding throughout (settings): 24 hours of compound treatment, 50 nM and 500 nM tested (concentration behind the class not stated)

For one test, the target named is T1, WEE1 (Homo sapiens, UniProt P30291+Q96SW2).
T1 construct: endogenous in cells; host or cells: hPBMCs (Milecell Biotechnologies)
Put plainly: Western-blot assay of substrate protein degradation in hPBMCs, WEE1.

Another test concerns the target T2, IKZF1 (Homo sapiens, UniProt Q13422+Q96SW2).
T2 construct: endogenous in cells; host or cells: hPBMCs (Milecell Biotechnologies)
Nature of the test: Western-blot assay of substrate protein degradation in hPBMCs, IKZF1.

The next test has as its target T3, IKZF2 (Homo sapiens, UniProt Q96SW2+Q9UKS7).
T3 construct: endogenous in cells; host or cells: hPBMCs (Milecell Biotechnologies)
Put plainly: Western-blot assay of substrate protein degradation in hPBMCs, IKZF2.

For a further test, the target named is T4, IKZF3 (Homo sapiens, UniProt Q96SW2+Q9UKT9).
T4 construct: endogenous in cells; host or cells: hPBMCs (Milecell Biotechnologies)
T4 sequence (Q9UKT9 whole entry): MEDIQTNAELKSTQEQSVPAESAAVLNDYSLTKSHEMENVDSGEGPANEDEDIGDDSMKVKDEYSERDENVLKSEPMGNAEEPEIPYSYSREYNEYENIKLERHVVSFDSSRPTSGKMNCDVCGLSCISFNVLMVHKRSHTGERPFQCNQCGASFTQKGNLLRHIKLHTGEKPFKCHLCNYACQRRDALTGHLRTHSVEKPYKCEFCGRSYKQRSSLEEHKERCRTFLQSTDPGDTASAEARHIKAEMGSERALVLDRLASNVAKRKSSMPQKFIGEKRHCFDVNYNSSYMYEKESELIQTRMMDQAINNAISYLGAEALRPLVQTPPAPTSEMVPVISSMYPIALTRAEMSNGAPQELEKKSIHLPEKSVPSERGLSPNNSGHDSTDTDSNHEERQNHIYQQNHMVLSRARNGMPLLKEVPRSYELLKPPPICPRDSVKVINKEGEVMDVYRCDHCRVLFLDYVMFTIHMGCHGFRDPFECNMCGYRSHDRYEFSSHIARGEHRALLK
T4 sequence (Q96SW2 whole entry): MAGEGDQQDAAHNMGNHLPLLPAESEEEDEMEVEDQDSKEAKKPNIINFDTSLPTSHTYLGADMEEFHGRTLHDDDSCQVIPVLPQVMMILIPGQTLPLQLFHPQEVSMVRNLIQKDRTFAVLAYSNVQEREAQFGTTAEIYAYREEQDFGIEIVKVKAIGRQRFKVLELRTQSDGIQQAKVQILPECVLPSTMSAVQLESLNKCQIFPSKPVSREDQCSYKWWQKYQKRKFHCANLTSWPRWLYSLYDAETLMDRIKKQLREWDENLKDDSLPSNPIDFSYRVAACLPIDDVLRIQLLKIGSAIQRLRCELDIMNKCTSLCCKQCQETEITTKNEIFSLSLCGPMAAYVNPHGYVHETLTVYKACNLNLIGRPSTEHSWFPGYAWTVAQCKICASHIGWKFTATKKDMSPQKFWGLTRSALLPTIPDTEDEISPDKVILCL
T4 sequence (Q16531 whole entry partner): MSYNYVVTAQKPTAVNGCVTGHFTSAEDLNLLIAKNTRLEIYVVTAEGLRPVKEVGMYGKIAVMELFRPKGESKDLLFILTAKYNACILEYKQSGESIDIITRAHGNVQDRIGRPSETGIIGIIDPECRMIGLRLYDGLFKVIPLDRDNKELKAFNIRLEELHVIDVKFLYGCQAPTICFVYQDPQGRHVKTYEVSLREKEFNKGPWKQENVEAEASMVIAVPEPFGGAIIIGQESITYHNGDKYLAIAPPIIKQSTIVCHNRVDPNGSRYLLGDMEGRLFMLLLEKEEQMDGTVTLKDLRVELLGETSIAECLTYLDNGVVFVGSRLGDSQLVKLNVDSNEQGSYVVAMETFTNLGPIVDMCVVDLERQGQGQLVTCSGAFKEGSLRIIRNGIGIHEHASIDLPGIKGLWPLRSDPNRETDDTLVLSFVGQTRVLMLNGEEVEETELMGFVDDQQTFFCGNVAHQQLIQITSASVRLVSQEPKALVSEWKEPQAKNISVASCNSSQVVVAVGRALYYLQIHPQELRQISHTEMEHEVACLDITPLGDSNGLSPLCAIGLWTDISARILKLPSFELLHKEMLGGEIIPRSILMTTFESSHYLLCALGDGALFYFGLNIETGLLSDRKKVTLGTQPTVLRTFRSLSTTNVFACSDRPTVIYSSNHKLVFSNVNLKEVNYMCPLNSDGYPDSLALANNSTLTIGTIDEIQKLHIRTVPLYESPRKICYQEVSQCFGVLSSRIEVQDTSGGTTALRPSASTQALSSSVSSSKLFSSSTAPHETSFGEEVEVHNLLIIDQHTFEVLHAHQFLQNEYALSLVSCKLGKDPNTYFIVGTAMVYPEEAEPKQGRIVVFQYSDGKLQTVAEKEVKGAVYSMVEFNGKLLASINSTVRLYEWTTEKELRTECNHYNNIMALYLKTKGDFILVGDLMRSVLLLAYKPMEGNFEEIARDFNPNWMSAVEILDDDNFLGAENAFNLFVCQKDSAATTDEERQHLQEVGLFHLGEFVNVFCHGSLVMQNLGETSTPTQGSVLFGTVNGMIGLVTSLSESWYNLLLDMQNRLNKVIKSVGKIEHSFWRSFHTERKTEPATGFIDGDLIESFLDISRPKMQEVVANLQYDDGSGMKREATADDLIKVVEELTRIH
Nature of the test: Western-blot assay of substrate protein degradation in hPBMCs, IKZF3.

A further test concerns the target T5, CK1α (Homo sapiens, UniProt P48729+Q96SW2).
T5 construct: endogenous in cells; host or cells: hPBMCs (Milecell Biotechnologies)
Nature of the test: Western-blot assay of substrate protein degradation in hPBMCs, CK1α.

Another test deals with T6, GSPT1 (Homo sapiens, UniProt P15170+Q96SW2).
T6 construct: endogenous in cells; host or cells: hPBMCs (Milecell Biotechnologies)
T6 sequence (P15170 whole entry): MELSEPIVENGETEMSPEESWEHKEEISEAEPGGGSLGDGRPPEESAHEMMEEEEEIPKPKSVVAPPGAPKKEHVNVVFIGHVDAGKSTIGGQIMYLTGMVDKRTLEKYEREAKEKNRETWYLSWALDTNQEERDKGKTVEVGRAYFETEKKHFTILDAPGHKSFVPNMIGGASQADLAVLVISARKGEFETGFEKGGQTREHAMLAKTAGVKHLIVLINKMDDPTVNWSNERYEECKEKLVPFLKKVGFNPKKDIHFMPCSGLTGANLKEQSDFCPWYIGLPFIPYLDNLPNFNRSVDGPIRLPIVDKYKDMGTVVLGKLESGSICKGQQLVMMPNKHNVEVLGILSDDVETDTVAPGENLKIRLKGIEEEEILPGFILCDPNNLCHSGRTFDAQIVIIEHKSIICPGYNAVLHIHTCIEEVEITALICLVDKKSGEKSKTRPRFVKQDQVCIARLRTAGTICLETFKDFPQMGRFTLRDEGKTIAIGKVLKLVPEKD
T6 sequence (Q96SW2 whole entry): as the sequence (Q96SW2 whole entry) above
T6 sequence (Q16531 whole entry partner): as the sequence (Q16531 whole entry partner) above
Put plainly: Western-blot assay of substrate protein degradation in hPBMCs, GSPT1.

T2 sequence (Q13422 whole entry): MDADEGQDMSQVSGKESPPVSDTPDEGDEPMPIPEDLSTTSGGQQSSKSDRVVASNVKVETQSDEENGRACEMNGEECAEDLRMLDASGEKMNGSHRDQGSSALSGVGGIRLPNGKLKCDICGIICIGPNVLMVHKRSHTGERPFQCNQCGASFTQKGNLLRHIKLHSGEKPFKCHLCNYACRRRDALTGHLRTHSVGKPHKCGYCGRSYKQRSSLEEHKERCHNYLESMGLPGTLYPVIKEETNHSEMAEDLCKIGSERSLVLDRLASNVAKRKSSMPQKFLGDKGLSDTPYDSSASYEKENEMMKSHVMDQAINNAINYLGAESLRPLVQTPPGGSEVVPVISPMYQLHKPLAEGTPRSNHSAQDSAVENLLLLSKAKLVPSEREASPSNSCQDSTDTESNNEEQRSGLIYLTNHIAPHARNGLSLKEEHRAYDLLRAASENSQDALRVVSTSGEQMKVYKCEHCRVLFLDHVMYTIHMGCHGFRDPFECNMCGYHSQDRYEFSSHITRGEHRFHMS
T2 sequence (Q96SW2 whole entry): as the sequence (Q96SW2 whole entry) above
T2 sequence (Q16531 whole entry partner): as the sequence (Q16531 whole entry partner) above
T5 sequence (P48729 whole entry): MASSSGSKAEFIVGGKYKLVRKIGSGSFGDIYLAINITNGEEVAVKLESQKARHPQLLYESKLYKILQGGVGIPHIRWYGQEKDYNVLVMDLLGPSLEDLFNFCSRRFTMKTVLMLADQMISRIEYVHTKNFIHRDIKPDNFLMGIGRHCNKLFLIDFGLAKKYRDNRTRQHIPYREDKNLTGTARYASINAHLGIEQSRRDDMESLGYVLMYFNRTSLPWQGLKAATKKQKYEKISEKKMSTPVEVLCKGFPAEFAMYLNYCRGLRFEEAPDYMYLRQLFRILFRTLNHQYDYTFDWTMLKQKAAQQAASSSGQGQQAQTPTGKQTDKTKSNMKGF
T5 sequence (Q96SW2 whole entry): as the sequence (Q96SW2 whole entry) above
T5 sequence (Q16531 whole entry partner): as the sequence (Q16531 whole entry partner) above
T1 sequence (P30291 whole entry): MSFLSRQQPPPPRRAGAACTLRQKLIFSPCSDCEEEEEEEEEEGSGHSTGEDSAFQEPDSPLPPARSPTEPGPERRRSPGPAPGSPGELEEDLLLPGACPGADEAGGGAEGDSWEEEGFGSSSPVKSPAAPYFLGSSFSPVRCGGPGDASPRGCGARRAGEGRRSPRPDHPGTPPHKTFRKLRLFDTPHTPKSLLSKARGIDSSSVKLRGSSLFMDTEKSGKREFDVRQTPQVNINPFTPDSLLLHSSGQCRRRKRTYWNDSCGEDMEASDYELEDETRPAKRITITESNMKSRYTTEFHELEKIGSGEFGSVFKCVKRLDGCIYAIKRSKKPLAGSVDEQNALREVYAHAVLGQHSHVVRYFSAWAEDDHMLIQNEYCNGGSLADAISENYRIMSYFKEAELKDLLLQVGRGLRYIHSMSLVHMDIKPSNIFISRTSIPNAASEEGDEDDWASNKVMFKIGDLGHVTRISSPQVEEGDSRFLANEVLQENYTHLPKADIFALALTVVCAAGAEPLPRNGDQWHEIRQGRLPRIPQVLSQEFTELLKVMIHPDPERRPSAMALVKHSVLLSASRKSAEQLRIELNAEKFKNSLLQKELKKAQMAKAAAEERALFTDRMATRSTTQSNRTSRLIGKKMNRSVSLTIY
T1 sequence (Q96SW2 whole entry): as the sequence (Q96SW2 whole entry) above
T1 sequence (Q16531 whole entry partner): as the sequence (Q16531 whole entry partner) above

With `O=C1CCC(N2C(=O)c3ccc(CN4CCN(c5ncnc6sccc56)CC4)cc3C2=O)C(=O)N1` (stereo not drawn) [GT-06303, 2-(2,6-dioxopiperidin-3-yl)-5-((4-(thieno[2,3-d]pyrimidin-4-yl)piperazin-1-yl)methyl)isoindoline-1,3-dione], the “Weel substrate protein remaining %” value at WEE1 is on record as “B (80%< substrate protein remaining %≤ 100%)”. Further, the “IKZF 1 substrate protein remaining %” value at IKZF1 is “A (0% ≤ substrate protein remaining % ≤ 80%)”. The “IKZF2 substrate protein remaining %” value on IKZF2 was “B (80%< substrate protein remaining %≤ 100%)”. Moreover, on IKZF3, the “IKZF3 substrate protein remaining %” value was “B (80%< substrate protein remaining %≤ 100%)”. Further, the “CK1a substrate protein remaining %” value on CK1α is on record as “B (80%< substrate protein remaining %≤ 100%)”. Moreover, on GSPT1, the “GSPT1 substrate protein remaining %” value is “B (80%< substrate protein remaining %≤ 100%)”.
`Cc1cc2c(N3CCN(Cc4ccc5c(c4)C(=O)N(C4CCC(=O)NC4=O)C5=O)CC3)ncnc2s1` (stereo not drawn) [GT-06305, 2-(2,6-dioxopiperidin-3-yl)-5-((4-(6-methylthieno[2,3-d]pyrimidin-4-yl)piperazin-1-yl)methyl)isoindoline-1,3-dione]: the “Weel substrate protein remaining %” value at WEE1 is “B (80%< substrate protein remaining %≤ 100%)”. At IKZF1, the “IKZF 1 substrate protein remaining %” value is recorded as “B (80%< substrate protein remaining %≤ 100%)”. Further, the “IKZF2 substrate protein remaining %” value on IKZF2 is “B (80%< substrate protein remaining %≤ 100%)”. Moreover, the “IKZF3 substrate protein remaining %” value on IKZF3 was “B (80%< substrate protein remaining %≤ 100%)”. For the same compound, the “CK1a substrate protein remaining %” value on CK1α was “A (0% ≤ substrate protein remaining % ≤ 80%)”. In addition, the “GSPT1 substrate protein remaining %” value on GSPT1 was “B (80%< substrate protein remaining %≤ 100%)”.
Consider `Cc1sc2ncnc(N3CCN(Cc4ccc5c(c4)C(=O)N(C4CCC(=O)NC4=O)C5=O)CC3)c2c1C` (stereo not drawn) [GT-06307, 5-((4-(5,6-dimethylthieno[2,3-d]pyrimidin-4-yl)piperazin-1-yl)methyl)-2-(2,6-dioxopiperidin-3-yl)isoindoline-1,3-dione], for which, at WEE1, the “Weel substrate protein remaining %” value is recorded as “B (80%< substrate protein remaining %≤ 100%)”. For the same compound, the “IKZF 1 substrate protein remaining %” value at IKZF1 is “A (0% ≤ substrate protein remaining % ≤ 80%)”. At IKZF2, the “IKZF2 substrate protein remaining %” value was “A (0% ≤ substrate protein remaining % ≤ 80%)”. For the same compound, at IKZF3, the “IKZF3 substrate protein remaining %” value is “B (80%< substrate protein remaining %≤ 100%)”. At CK1α, the “CK1a substrate protein remaining %” value was “A (0% ≤ substrate protein remaining % ≤ 80%)”. For the same compound, the “GSPT1 substrate protein remaining %” value at GSPT1 is given as “A (0% ≤ substrate protein remaining % ≤ 80%)”.
In the case of `Cc1sc2ncnc(N3CCCN(Cc4ccc5c(c4)C(=O)N(C4CCC(=O)NC4=O)C5=O)CC3)c2c1C` (stereo not drawn) [GT-06308, 5-((4-(5,6-dimethylthieno[2,3-d]pyrimidin-4-yl)-1,4-diazepan-1-yl)methyl)-2-(2,6-dioxopiperidin-3-yl)isoindoline-1,3-dione], the “Weel substrate protein remaining %” value at WEE1 is on record as “B (80%< substrate protein remaining %≤ 100%)”. In addition, on IKZF1, the “IKZF 1 substrate protein remaining %” value was “A (0% ≤ substrate protein remaining % ≤ 80%)”. In addition, the “IKZF2 substrate protein remaining %” value at IKZF2 is reported as “A (0% ≤ substrate protein remaining % ≤ 80%)”. Moreover, the “IKZF3 substrate protein remaining %” value at IKZF3 is “B (80%< substrate protein remaining %≤ 100%)”. On CK1α, the “CK1a substrate protein remaining %” value was “B (80%< substrate protein remaining %≤ 100%)”. Further, the “GSPT1 substrate protein remaining %” value on GSPT1 is reported as “B (80%< substrate protein remaining %≤ 100%)”.
With `O=C1CCC(N2C(=O)c3ccc(CN4CCN(c5ncnc6sc(-c7ccccc7)cc56)CC4)cc3C2=O)C(=O)N1` (stereo not drawn) [GT-06310, 2-(2,6-dioxopiperidin-3-yl)-5-((4-(6-phenylthieno[2,3-d]pyrimidin-4-yl)piperazin-1-yl)methyl)isoindoline-1,3-dione], the “Weel substrate protein remaining %” value at WEE1 is “B (80%< substrate protein remaining %≤ 100%)”. Further, the “IKZF 1 substrate protein remaining %” value on IKZF1 is “B (80%< substrate protein remaining %≤ 100%)”. The “IKZF2 substrate protein remaining %” value on IKZF2 is recorded as “A (0% ≤ substrate protein remaining % ≤ 80%)”. Besides, the “IKZF3 substrate protein remaining %” value on IKZF3 was “A (0% ≤ substrate protein remaining % ≤ 80%)”. Also, the “CK1a substrate protein remaining %” value at CK1α is on record as “A (0% ≤ substrate protein remaining % ≤ 80%)”. The “GSPT1 substrate protein remaining %” value on GSPT1 is recorded as “A (0% ≤ substrate protein remaining % ≤ 80%)”.
With `Cc1nc(N2CCN(Cc3ccc4c(c3)C(=O)N(C3CCC(=O)NC3=O)C4=O)CC2)c2ccsc2n1` (stereo not drawn) [GT-06347, 2-(2,6-dioxopiperidin-3-yl)-5-((4-(2-methylthieno[2,3-d]pyrimidin-4-yl)piperazin-1-yl)methyl)isoindoline-1,3-dione], the “Weel substrate protein remaining %” value at WEE1 was “B (80%< substrate protein remaining %≤ 100%)”. The “IKZF 1 substrate protein remaining %” value on IKZF1 is given as “A (0% ≤ substrate protein remaining % ≤ 80%)”. For the same compound, at IKZF2, the “IKZF2 substrate protein remaining %” value is recorded as “A (0% ≤ substrate protein remaining % ≤ 80%)”. The “IKZF3 substrate protein remaining %” value at IKZF3 is recorded as “A (0% ≤ substrate protein remaining % ≤ 80%)”. At CK1α, the “CK1a substrate protein remaining %” value is “B (80%< substrate protein remaining %≤ 100%)”. Further, the “GSPT1 substrate protein remaining %” value on GSPT1 is “B (80%< substrate protein remaining %≤ 100%)”.
For `O=C1CCC(N2C(=O)c3ccc(CN4CCN(c5ccc(Cl)cc5Cl)CC4)cc3C2=O)C(=O)N1` (stereo not drawn) [GT-06355, 5-((4-(2,4-dichlorophenyl)piperazin-1-yl)methyl)-2-(2,6-dioxopiperidin-3-yl)isoindoline-1,3-dione], the “Weel substrate protein remaining %” value at WEE1 is given as “B (80%< substrate protein remaining %≤ 100%)”. Further, the “IKZF 1 substrate protein remaining %” value on IKZF1 was “B (80%< substrate protein remaining %≤ 100%)”. The “IKZF2 substrate protein remaining %” value at IKZF2 is “B (80%< substrate protein remaining %≤ 100%)”. Also, the “IKZF3 substrate protein remaining %” value on IKZF3 is on record as “B (80%< substrate protein remaining %≤ 100%)”. In addition, the “CK1a substrate protein remaining %” value on CK1α is given as “B (80%< substrate protein remaining %≤ 100%)”. In addition, the “GSPT1 substrate protein remaining %” value on GSPT1 is “A (0% ≤ substrate protein remaining % ≤ 80%)”.
Turning to `O=C1CCC(N2C(=O)c3ccc(CN4CCN(c5cc(Cl)ccc5Cl)CC4)cc3C2=O)C(=O)N1` (stereo not drawn) [GT-06356, 5-((4-(2,5-dichlorophenyl)piperazin-1-yl)methyl)-2-(2,6-dioxopiperidin-3-yl)isoindoline-1,3-dione], on WEE1, the “Weel substrate protein remaining %” value is “B (80%< substrate protein remaining %≤ 100%)”. For the same compound, the “IKZF 1 substrate protein remaining %” value at IKZF1 is “B (80%< substrate protein remaining %≤ 100%)”. Besides, the “IKZF2 substrate protein remaining %” value on IKZF2 is given as “B (80%< substrate protein remaining %≤ 100%)”. The “IKZF3 substrate protein remaining %” value at IKZF3 was “B (80%< substrate protein remaining %≤ 100%)”. Also, the “CK1a substrate protein remaining %” value at CK1α is recorded as “B (80%< substrate protein remaining %≤ 100%)”. In addition, the “GSPT1 substrate protein remaining %” value on GSPT1 is “A (0% ≤ substrate protein remaining % ≤ 80%)”.
In the case of `O=C1CCC(N2C(=O)c3ccc(CN4CCC(c5cccc(Cl)c5Cl)CC4)cc3C2=O)C(=O)N1` (stereo not drawn) [GT-06358, 5-((4-(2,3-dichlorophenyl)piperidin-1-yl)methyl)-2-(2,6-dioxopiperidin-3-yl)isoindoline-1,3-dione], the “Weel substrate protein remaining %” value on WEE1 is listed as “A (0% ≤ substrate protein remaining % ≤ 80%)”. Also, the “IKZF 1 substrate protein remaining %” value at IKZF1 is recorded as “A (0% ≤ substrate protein remaining % ≤ 80%)”. The “IKZF2 substrate protein remaining %” value on IKZF2 was “A (0% ≤ substrate protein remaining % ≤ 80%)”. Further, the “IKZF3 substrate protein remaining %” value on IKZF3 is given as “B (80%< substrate protein remaining %≤ 100%)”. For the same compound, the “CK1a substrate protein remaining %” value at CK1α is on record as “B (80%< substrate protein remaining %≤ 100%)”. Besides, at GSPT1, the “GSPT1 substrate protein remaining %” value was “A (0% ≤ substrate protein remaining % ≤ 80%)”.
With `O=C1CCC(N2C(=O)c3ccc(CN4CCC(c5cccc(F)c5F)CC4)cc3C2=O)C(=O)N1` (stereo not drawn) [GT-06359, 5-((4-(2,3-difluorophenyl)piperidin-1-yl)methyl)-2-(2,6-dioxopiperidin-3-yl)isoindoline-1,3-dione], the “Weel substrate protein remaining %” value at WEE1 is given as “A (0% ≤ substrate protein remaining % ≤ 80%)”. For the same compound, the “IKZF 1 substrate protein remaining %” value at IKZF1 is reported as “A (0% ≤ substrate protein remaining % ≤ 80%)”. Also, the “IKZF2 substrate protein remaining %” value at IKZF2 is given as “A (0% ≤ substrate protein remaining % ≤ 80%)”. For the same compound, on IKZF3, the “IKZF3 substrate protein remaining %” value is “B (80%< substrate protein remaining %≤ 100%)”. Also, the “CK1a substrate protein remaining %” value on CK1α was “B (80%< substrate protein remaining %≤ 100%)”. The “GSPT1 substrate protein remaining %” value at GSPT1 was “A (0% ≤ substrate protein remaining % ≤ 80%)”.
`O=C1CCC(N2C(=O)c3ccc(CN4CCC(c5cccc(F)c5Cl)CC4)cc3C2=O)C(=O)N1` (stereo not drawn) [GT-06360, 5-((4-(2-chloro-3-fluorophenyl)piperidin-1-yl)methyl)-2-(2,6-dioxopiperidin-3-yl)isoindoline-1,3-dione]: the “Weel substrate protein remaining %” value on WEE1 is “A (0% ≤ substrate protein remaining % ≤ 80%)”. At IKZF1, the “IKZF 1 substrate protein remaining %” value is on record as “A (0% ≤ substrate protein remaining % ≤ 80%)”. Also, the “IKZF2 substrate protein remaining %” value on IKZF2 is “A (0% ≤ substrate protein remaining % ≤ 80%)”. The “IKZF3 substrate protein remaining %” value on IKZF3 is reported as “B (80%< substrate protein remaining %≤ 100%)”. In addition, the “CK1a substrate protein remaining %” value at CK1α is “B (80%< substrate protein remaining %≤ 100%)”. For the same compound, the “GSPT1 substrate protein remaining %” value at GSPT1 was “A (0% ≤ substrate protein remaining % ≤ 80%)”.
Take `O=C1CCC(N2C(=O)c3ccc(CN4CCN(c5ccc(F)cc5F)CC4)cc3C2=O)C(=O)N1` (stereo not drawn) [GT-06361, 5-((4-(2,4-difluorophenyl)piperazin-1-yl)methyl)-2-(2,6-dioxopiperidin-3-yl)isoindoline-1,3-dione]: the “Weel substrate protein remaining %” value at WEE1 is “B (80%< substrate protein remaining %≤ 100%)”. For the same compound, the “IKZF 1 substrate protein remaining %” value on IKZF1 was “B (80%< substrate protein remaining %≤ 100%)”. Moreover, the “IKZF2 substrate protein remaining %” value at IKZF2 is “B (80%< substrate protein remaining %≤ 100%)”. Besides, the “IKZF3 substrate protein remaining %” value at IKZF3 is on record as “B (80%< substrate protein remaining %≤ 100%)”. The “CK1a substrate protein remaining %” value at CK1α is “B (80%< substrate protein remaining %≤ 100%)”. Besides, the “GSPT1 substrate protein remaining %” value on GSPT1 was “A (0% ≤ substrate protein remaining % ≤ 80%)”.
